From patent US8563542B2 (Cyclacel Limited, priority 2007, dated 2013)

Molecular target: PLK1 (Homo sapiens, UniProt P53350)
Assay: PLK1 protein kinase assay (CDC25C phosphorylation, [γ-32P]-ATP)
Format: biochemical
Conditions: Table 2, PLK1 IC50; class symbols; read-out: PLK1 IC50

Chain of PLK1 (P53350 whole entry): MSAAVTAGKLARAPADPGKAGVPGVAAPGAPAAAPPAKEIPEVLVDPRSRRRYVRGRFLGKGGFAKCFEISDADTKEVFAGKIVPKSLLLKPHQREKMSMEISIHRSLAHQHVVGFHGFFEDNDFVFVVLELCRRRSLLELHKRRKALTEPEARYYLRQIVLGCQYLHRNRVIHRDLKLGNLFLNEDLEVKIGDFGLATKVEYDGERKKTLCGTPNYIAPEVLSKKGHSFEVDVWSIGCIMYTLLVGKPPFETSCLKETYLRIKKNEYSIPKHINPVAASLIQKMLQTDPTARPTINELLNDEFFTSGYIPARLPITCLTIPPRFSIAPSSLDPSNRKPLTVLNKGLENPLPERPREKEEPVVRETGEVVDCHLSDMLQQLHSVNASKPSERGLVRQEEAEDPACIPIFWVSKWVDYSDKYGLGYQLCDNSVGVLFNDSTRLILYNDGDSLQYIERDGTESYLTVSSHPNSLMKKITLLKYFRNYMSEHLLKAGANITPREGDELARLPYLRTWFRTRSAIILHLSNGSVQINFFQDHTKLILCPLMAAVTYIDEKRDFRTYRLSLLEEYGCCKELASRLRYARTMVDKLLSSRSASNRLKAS

`COc1cc(C(=O)NC2CCN(C)CC2)ccc1Nc1ncc2c(n1)N(CCC(=O)N(C)C)CCC(=O)N2C` [compound 225, 4-[9-(2-Dimethylcarbamoyl-ethyl)-5-methyl-6-oxo-6,7,8,9-tetrahydro-5H-pyrimido[4,5-b][1,4]diazepin-2-ylamino]-3-methoxy-N-(1-methyl-piperidin-4-yl)-benzamide] and `COc1cc(C(=O)NC2CCN(C)CC2)ccc1Nc1ncc2c(n1)N(CCC(=O)NCCCN(C)C)CCC(=O)N2C` [compound 226, 4-{9-[2-(3-Dimethylamino-propylcarbamoyl)-ethyl]-5-methyl-6-oxo-6,7,8,9-tetrahydro-5H-pyrimido[4,5-b][1,4]diazepin-2-ylamino}-3-methoxy-N-(1-methyl-piperidin-4-yl)-benzamide] cannot be ordered by IC50: under 1000 nM for the first, under 1000 nM for the second.

`CN1CCC(NC(=O)c2ccc(Nc3ncc4c(n3)N(C3CCCC3)CCC(=O)N4C)c(O)c2)CC1` [compound 228, 4-(9-Cyclopentyl-5-methyl-6-oxo-6,7,8,9-tetrahydro-5H-pyrimido[4,5-b][1,4]diazepin-2-ylamino)-3-hydroxy-N-(1-methyl-piperidin-4-yl)-benzamide] and `CCN1CCC(NC(=O)c2ccc(Nc3ncc4c(n3)N(C3CCCC3)CCC(=O)N4C)c(OC)c2)CC1` [compound 237, 4-(9-Cyclopentyl-5-methyl-6-oxo-6,7,8,9-tetrahydro-5H-pyrimido[4,5-b][1,4]diazepin-2-ylamino)-N-(1-ethyl-piperidin-4-yl)-3-methoxy-benzamide] cannot be ordered by IC50: under 100 nM for the first, under 100 nM for the second.

`CCc1cc(C(=O)O)ccc1Nc1ncc2c(n1)N(C1CCCC1)CC1(CC1)C(=O)N2C` [compound 229, 4-(9-Cyclopentyl-5-methyl-6-oxo-6,7,8,9-tetrahydro-5H-pyrimido[4,5-b][1,4]diazepin-3,1′-cyclopropane-2-ylamino)-acid] and `COc1cc(C(=O)O)ccc1Nc1ncc2c(n1)N(C1CCCC1)CC1(CC1)C(=O)N2C` [compound 239, 4-(9-Cyclopentyl-5-methyl-6-oxo-6,7,8,9-tetrahydro-5H-pyrimido[4,5-b][1,4]diazepin-3,1′-cyclopropane-2-ylamino)-3-methoxy-benzoic acid] cannot be ordered by IC50: under 1000 nM for the first, under 1000 nM for the second.

`COc1cc(C(=O)O)ccc1Nc1ncc2c(n1)N(CC1CC1)CC1(CC1)C(=O)N2C` [compound 230, 4-(9-Cyclopropylmethyl-5-methyl-6-oxo-6,7,8,9-tetrahydro-5H-pyrimido[4,5-b][1,4]diazepin-3,1′-cyclopropane-2-ylamino)-3-methoxy-benzoic acid] and `COc1cc(C(=O)NC2CCCC2)ccc1Nc1ncc2c(n1)N(CC1CC1)CCC(=O)N2C` [compound 248, N-Cyclopentyl-4-(9-cyclopropylmethyl-5-methyl-6-oxo-6,7,8,9-tetrahydro-5H-pyrimido[4,5-b][1,4]diazepin-2-ylamino)-3-methoxy-benzamide] cannot be ordered by IC50: under 1000 nM for the first, under 1000 nM for the second.

`CCN(CC)CCNC(=O)c1ccc(OC)c(Nc2ncc3c(n2)N(C2CCCC2)CCC(=O)N3C)c1` [compound 231, 3-(9-Cyclopentyl-5-methyl-6-oxo-6,7,8,9-tetrahydro-5H-pyrimido[4,5-b][1,4]diazepin-2-ylamino)-N-(2-diethylamino-ethyl)-4-methoxy-benzamide] and `COc1ccc(C(=O)NCCCN(C)C)cc1Nc1ncc2c(n1)N(C1CCCC1)CCC(=O)N2C` [compound 232, 3-(9-Cyclopentyl-5-methyl-6-oxo-6,7,8,9-tetrahydro-5H-pyrimido[4,5-b][1,4]diazepin-2-ylamino)-N-(3-dimethylamino-propyl)-4-methoxy-benzamide] cannot be ordered by IC50: under 1000 nM for the first, under 1000 nM for the second.

`COc1ccc(C(=O)NCCCO)cc1Nc1ncc2c(n1)N(C1CCCC1)CCC(=O)N2C` [compound 233, 3-(9-Cyclopentyl-5-methyl-6-oxo-6,7,8,9-tetrahydro-5H-pyrimido[4,5-b][1,4]diazepin-2-ylamino)-N-(3-hydroxy-propyl)-4-methoxy-benzamide] and `COc1ccc(C(=O)NCC2CCN(C)CC2)cc1Nc1ncc2c(n1)N(C1CCCC1)CCC(=O)N2C` [compound 235, 3-(9-Cyclopentyl-5-methyl-6-oxo-6,7,8,9-tetrahydro-5H-pyrimido[4,5-b][1,4]diazepin-2-ylamino)-4-methoxy-N-(1-methyl-piperidin-4-ylmethyl)-benzamide] cannot be ordered by IC50: under 1000 nM for the first, under 1000 nM for the second.

`COc1ccc(C(=O)NC(C)(C)CN2CCCCC2)cc1Nc1ncc2c(n1)N(C1CCCC1)CCC(=O)N2C` [compound 234, 3-(9-Cyclopentyl-5-methyl-6-oxo-6,7,8,9-tetrahydro-5H-pyrimido[4,5-b][1,4]diazepin-2-ylamino)-N-(1,1-dimethyl-2-piperidin-1-yl-ethyl)-4-methoxy-benzamide] and `COc1cc(C(=O)NC(C)(C)CN2CCCCC2)ccc1Nc1ncc2c(n1)N(C1CCCC1)CC1(CC1)C(=O)N2C` [compound 251, 4-(9-Cyclopentyl-5-methyl-6-oxo-6,7,8,9-tetrahydro-5H-pyrimido[4,5-b][1,4]diazepin-3,1′-cyclopropane-2-ylamino)-N-(1,1-dimethyl-2-piperidin-1-yl-ethyl)-3-methoxy-benzamide] cannot be ordered by IC50: under 10000 nM for the first, under 1000 nM for the second.

`COc1cc(C(=O)NC2CCN(CC3CC3)CC2)ccc1Nc1ncc2c(n1)N(C1CCCC1)CCC(=O)N2C` [compound 238, 4-(9-Cyclopentyl-5-methyl-6-oxo-6,7,8,9-tetrahydro-5H-pyrimido[4,5-b][1,4]diazepin-2-ylamino)-N-(1-cyclopropylmethyl-piperidin-4-yl)-3-methoxy-benzamide] and `COc1cc(C(=O)NC2CCCN(C)C2)ccc1Nc1ncc2c(n1)N(CC1CC1)CCC(=O)N2C` (stereo not drawn) [compound 245, 4-(9-Cyclopropylmethyl-5-methyl-6-oxo-6,7,8,9-tetrahydro-5H-pyrimido[4,5-b][1,4]diazepin-2-ylamino)-3-methoxy-N-(1-methyl-piperidin-3-yl)-benzamide] cannot be ordered by IC50: under 100 nM for the first, under 1000 nM for the second.

`COc1cc(C(=O)NC2CCN(Cc3ccccc3)CC2)ccc1Nc1ncc2c(n1)N(CC1CC1)CCC(=O)N2C` [compound 241, N-(1-Benzyl-piperidin-4-yl)-4-(9-cyclopropylmethyl-5-methyl-6-oxo-6,7,8,9-tetrahydro-5H-pyrimido[4,5-b][1,4]diazepin-2-ylamino)-3-methoxy-benzamide] and `COc1cc(C(=O)NC2CCN(Cc3ccccc3)CC2)ccc1Nc1ncc2c(n1)N(C1CCCC1)CC1(CC1)C(=O)N2C` [compound 252, 4-(9-Cyclopentyl-5-methyl-6-oxo-6,7,8,9-tetrahydro-5H-spiro[pyrimido[4,5-b][1,4]diazepin-3,1′-cyclopropane]-2-ylamino)-3-methoxy-N-(1-benzylpiperidin-4-yl)-benzamide] cannot be ordered by IC50: under 1000 nM for the first, under 1000 nM for the second.

`COc1cc(C(=O)NCC2CCN(C)CC2)ccc1Nc1ncc2c(n1)N(CC1CC1)CCC(=O)N2C` [compound 242, 4-(9-Cyclopropylmethyl-5-methyl-6-oxo-6,7,8,9-tetrahydro-5H-pyrimido[4,5-b][1,4]diazepin-2-ylamino)-3-methoxy-N-(1-methyl-piperidin-4-ylmethyl)-benzamide] and `COc1cc(C(=O)NC2CN3CCC2CC3)ccc1Nc1ncc2c(n1)N(CC1CC1)CCC(=O)N2C` (stereo not drawn) [compound 243, N-(1-Aza-bicyclo[2.2.2]oct-3-yl)-4-(9-cyclopropylmethyl-5-methyl-6-oxo-6,7,8,9-tetrahydro-5H-pyrimido[4,5-b][1,4]diazepin-2-ylamino)-3-methoxy-benzamide] cannot be ordered by IC50: under 1000 nM for the first, under 1000 nM for the second.

`COc1cc(C(=O)NC2CC(C)(C)N(C)C(C)(C)C2)ccc1Nc1ncc2c(n1)N(CC1CC1)CCC(=O)N2C` [compound 244, 4-(9-Cyclopropylmethyl-5-methyl-6-oxo-6,7,8,9-tetrahydro-5H-pyrimido[4,5-b][1,4]diazepin-2-ylamino)-3-methoxy-N-(1,2,2,6,6-pentamethyl-piperidin-4-yl)-benzamide] and `COc1cc(C(=O)NC2CC(C)(C)N(C)C(C)(C)C2)ccc1Nc1ncc2c(n1)N(C1CCCC1)CC1(CC1)C(=O)N2C` [compound 255, 4-(9-Cyclopentyl-5-methyl-6-oxo-6,7,8,9-tetrahydro-5H-spiro[pyrimido[4,5-b][1,4]diazepin-3,1′-cyclopropane]-2-ylamino)-3-methoxy-N-(1,2,2,6,6-pentamethyl-piperidin-4-yl)-benzamide] cannot be ordered by IC50: under 1000 nM for the first, under 100 nM for the second.

`COc1cc(C(=O)NCC(C)(C)CN(C)C)ccc1Nc1ncc2c(n1)N(CC1CC1)CCC(=O)N2C` [compound 246, 4-(9-Cyclopropylmethyl-5-methyl-6-oxo-6,7,8,9-tetrahydro-5H-pyrimido[4,5-b][1,4]diazepin-2-ylamino)-N-(3-dimethylamino-2,2-dimethyl-propyl)-3-methoxy-benzamide] and `COc1cc(C(=O)NCCCN(C)C)ccc1Nc1ncc2c(n1)N(CC1CC1)CCC(=O)N2C` [compound 247, 4-(9-Cyclopropylmethyl-5-methyl-6-oxo-6,7,8,9-tetrahydro-5H-pyrimido[4,5-b][1,4]diazepin-2-ylamino)-N-(3-dimethylamino-propyl)-3-methoxy-benzamide] cannot be ordered by IC50: under 1000 nM for the first, under 1000 nM for the second.

`COc1cc(C(=O)NCc2cccn2C)ccc1Nc1ncc2c(n1)N(CC1CC1)CCC(=O)N2C` [compound 249, 4-(9-Cyclopropylmethyl-5-methyl-6-oxo-6,7,8,9-tetrahydro-5H-pyrimido[4,5-b][1,4]diazepin-2-ylamino)-3-methoxy-N-(1-methyl-1H-pyrrol-2-ylmethyl)-benzamide] and `COc1cc(C(=O)NCC2CCN(C)CC2)ccc1Nc1ncc2c(n1)N(C1CCCC1)CC1(CC1)C(=O)N2C` [compound 253, 4-(9-Cyclopentyl-5-methyl-6-oxo-6,7,8,9-tetrahydro-5H-pyrimido[4,5-b][1,4]diazepin-3,1′-cyclopropane-2-ylamino)-3-methoxy-N-(1-methyl-piperidin-4-ylmethyl)-benzamide] cannot be ordered by IC50: under 1000 nM for the first, under 100 nM for the second.

Molecule `COc1cc(C(=O)NC(C)(C)CN2CCCC2)ccc1Nc1ncc2c(n1)N(C1CCCC1)CC1(CC1)C(=O)N2C` [compound 250, 4-(9-Cyclopentyl-5-methyl-6-oxo-6,7,8,9-tetrahydro-5H-pyrimido[4,5-b][1,4]diazepin-3,1′-cyclopropane-2-ylamino)-N-(1,1-dimethyl-2-pyrrolidin-1-yl-ethyl)-3-methoxy-benzamide] has an IC50 of under 1000 nM.
